The experiment concerns BRAPP (Brachiaria platyphylla, broadleaf signalgrass). The experiment in a line: Postemergence foliar-applied weed control, direct seeded rice, greenhouse (Example I). It is filed as in vivo, Brachiaria platyphylla (Griseb.) Nash. To be noted: Urochloa platyphylla, post-emergence. In a few lines:
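Greenhouse-grown plants in loam/sandy loam–grit soil (14 h photoperiod, ~29/26 °C) were sprayed postemergence at the first to fourth true leaf stage. Compound A (acid equivalent basis) and ALS-inhibiting sulfonylureas (active ingredient basis) were applied alone and in combination in 1.25% (v/v) crop oil concentrate at 187 L/ha by track sprayer; controls received solvent blank.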

Molecules are shown by their SMILES. Read-outs that look alike come from different tables or passages of the source.

This passage reports pest or weed control results from US8871681B2, “Herbicidal compositions comprising 4-amino-3-chloro-5-fluoro-6-(4-chloro-2-fluoro-3-methoxyphenyl) pyridine-2-carboxylic acid or a derivative thereof and certain sulfonylureas” (Dow AgroSciences LLC, priority 2012, dated 2014).

In the case of `COC(=O)c1ccccc1CS(=O)(=O)NC(=O)Nc1nc(OC)cc(OC)n1` [Bensulfuron-methyl, methyl 2-[[[[[(4,6-dimethoxy-2-pyrimidinyl)amino]carbonyl]amino]sulfonyl]methyl]benzoate, reference compound], the pest or weed control at 4.38 g/ha (504 h, 21 DAA, 4.38 gai/ha, read-out: Visual Weed Control (%) Obs) came to 0%. Also, the pest or weed control at 8.75 g/ha (504 h, 21 DAA, 8.75 gai/ha, read-out: Visual Weed Control (%) Obs) came to 0%. The pest or weed control at 17.5 g/ha amounted to 0% (504 h, 21 DAA, 17.5 gai/ha, read-out: Visual Weed Control (%) Obs) and 0% (504 h, 21 DAA, 17.5 gai/ha, second series, read-out: Visual Weed Control (%) Obs). Also, for the setting “504 h, 21 DAA, 35 gai/ha, second series, read-out: Visual Weed Control (%) Obs”, the pest or weed control at 35 g/ha is 0%.
As for `COc1c(Cl)ccc(-c2nc(C(=O)O)c(Cl)c(N)c2F)c1F` [Compound A Acid, 4-amino-3-chloro-5-fluoro-6-(4-chloro-2-fluoro-3-methoxy-phenyl)pyridine-2-carboxylic acid], the pest or weed control at 4.38 g/ha (480 h, 20 DAA, 4.38 gae/ha, read-out: Visual Weed Control (%) Obs) came out at 10%; the pest or weed control at 4.38 g/ha (504 h, 21 DAA, 4.38 gae/ha, read-out: Visual Weed Control (%) Obs) is 40%; the pest or weed control at 4.38 g/ha (504 h, 21 DAA, 4.38 gae/ha, second series, read-out: Visual Weed Control (%) Obs) amounted to 50%.
Regarding `COc1c(Cl)ccc(-c2nc(C(=O)OCc3ccccc3)c(Cl)c(N)c2F)c1F` [Compound A Benzyl Ester], the pest or weed control at 4.38 g/ha was 60% (480 h, read-out: Visual Weed Control (%) Obs, 20 DAA, 4.38 gae/ha); 50% (504 h, read-out: Visual Weed Control (%) Obs, 21 DAA, 4.38 gae/ha); 50% (504 h, read-out: Visual Weed Control (%) Obs, 21 DAA, 4.38 gae/ha, second series). The pest or weed control at 8.75 g/ha was determined as 75% (480 h, read-out: Visual Weed Control (%) Obs, 20 DAA, 8.75 gae/ha); 70% (504 h, read-out: Visual Weed Control (%) Obs, 21 DAA, 8.75 gae/ha); 80% (504 h, read-out: Visual Weed Control (%) Obs, 21 DAA, 8.75 gae/ha, second series). The pest or weed control at 17.5 g/ha by setting is: (480 h, read-out: Visual Weed Control (%) Obs, 20 DAA, 17.5 gae/ha) 85%; (504 h, read-out: Visual Weed Control (%) Obs, 21 DAA, 17.5 gae/ha) 80%. Besides, the pest or weed control at 8 g/ha (528 h, read-out: Visual Weed Control (%) Obs, 22 DAA, 8 gae/ha) is 50%. Where the note is “528 h, read-out: Visual Weed Control (%) Obs, 22 DAA, 16 gae/ha”, the pest or weed control at 16 g/ha stood at 90%. Where the note is “528 h, read-out: Visual Weed Control (%) Obs, 22 DAA, 32 gae/ha”, the pest or weed control at 32 g/ha amounted to 85%.
Regarding `COCC(=O)OC(c1ncccc1S(=O)(=O)NC(=O)Nc1nc(OC)cc(OC)n1)C(C)F` (stereo not shown) [Flucetosulfuron, 1-[3-[[[[(4,6-dimethoxy-2-pyrimidinyl)amino]carbonyl]amino]sulfonyl]-2-pyridinyl]-2-fluoropropyl 2-methoxyacetate], for the setting “504 h, 21 DAA, 0.05 gai/ha, read-out: Visual Weed Control (%) Obs”, the pest or weed control at 0.05 g/ha amounted to 0%. Further, the pest or weed control at 0.1 g/ha (504 h, 21 DAA, 0.1 gai/ha, read-out: Visual Weed Control (%) Obs) is 0%. The pest or weed control at 0.2 g/ha (504 h, 21 DAA, 0.2 gai/ha, read-out: Visual Weed Control (%) Obs) worked out at 0%. Moreover, where the note is “528 h, 22 DAA, 1.7 gai/ha, read-out: Visual Weed Control (%) Obs”, the pest or weed control at 1.7 g/ha is 0%.
As to `COC(=O)c1ccccc1S(=O)(=O)NC(=O)Nc1nc(C)nc(OC)n1` [Metsulfuron-methyl, methyl 2-[[[[(4-methoxy-6-methyl-1,3,5-triazin-2-yl)amino]carbonyl]amino]sulfonyl]benzoate, reference compound], the pest or weed control at 7.5 g/ha (480 h, 20 DAA, 7.5 gai/ha, read-out: Visual Weed Control (%) Obs) was determined as 0%. For the same molecule, the pest or weed control at 15 g/ha (480 h, 20 DAA, 15 gai/ha, read-out: Visual Weed Control (%) Obs) came to 20%.
